This note sets out measurements from ChEMBL document CHEMBL4480429, “Discovery of (S)-6-methoxy-chroman-3-carboxylic acid (4-pyridin-4-yl-phenyl)-amide as potent and isoform selective ROCK2 inhibitors” (Bioorg Med Chem, 2019).

For assay [1], the target named is Rho-associated protein kinase 1 (Homo sapiens, UniProt Q13464). Kind of assay: Inhibition of ROCK1 (unknown origin) using STK2 as substrate measured after 4 hrs by HTRF assay.
In assay [2] the target is Rho-associated protein kinase 2 (Homo sapiens, UniProt O75116). Kind of assay: Inhibition of ROCK2 (unknown origin) using STK2 as substrate measured after 4 hrs by HTRF assay.
Sequence of Rho-associated protein kinase 2 (O75116 whole entry): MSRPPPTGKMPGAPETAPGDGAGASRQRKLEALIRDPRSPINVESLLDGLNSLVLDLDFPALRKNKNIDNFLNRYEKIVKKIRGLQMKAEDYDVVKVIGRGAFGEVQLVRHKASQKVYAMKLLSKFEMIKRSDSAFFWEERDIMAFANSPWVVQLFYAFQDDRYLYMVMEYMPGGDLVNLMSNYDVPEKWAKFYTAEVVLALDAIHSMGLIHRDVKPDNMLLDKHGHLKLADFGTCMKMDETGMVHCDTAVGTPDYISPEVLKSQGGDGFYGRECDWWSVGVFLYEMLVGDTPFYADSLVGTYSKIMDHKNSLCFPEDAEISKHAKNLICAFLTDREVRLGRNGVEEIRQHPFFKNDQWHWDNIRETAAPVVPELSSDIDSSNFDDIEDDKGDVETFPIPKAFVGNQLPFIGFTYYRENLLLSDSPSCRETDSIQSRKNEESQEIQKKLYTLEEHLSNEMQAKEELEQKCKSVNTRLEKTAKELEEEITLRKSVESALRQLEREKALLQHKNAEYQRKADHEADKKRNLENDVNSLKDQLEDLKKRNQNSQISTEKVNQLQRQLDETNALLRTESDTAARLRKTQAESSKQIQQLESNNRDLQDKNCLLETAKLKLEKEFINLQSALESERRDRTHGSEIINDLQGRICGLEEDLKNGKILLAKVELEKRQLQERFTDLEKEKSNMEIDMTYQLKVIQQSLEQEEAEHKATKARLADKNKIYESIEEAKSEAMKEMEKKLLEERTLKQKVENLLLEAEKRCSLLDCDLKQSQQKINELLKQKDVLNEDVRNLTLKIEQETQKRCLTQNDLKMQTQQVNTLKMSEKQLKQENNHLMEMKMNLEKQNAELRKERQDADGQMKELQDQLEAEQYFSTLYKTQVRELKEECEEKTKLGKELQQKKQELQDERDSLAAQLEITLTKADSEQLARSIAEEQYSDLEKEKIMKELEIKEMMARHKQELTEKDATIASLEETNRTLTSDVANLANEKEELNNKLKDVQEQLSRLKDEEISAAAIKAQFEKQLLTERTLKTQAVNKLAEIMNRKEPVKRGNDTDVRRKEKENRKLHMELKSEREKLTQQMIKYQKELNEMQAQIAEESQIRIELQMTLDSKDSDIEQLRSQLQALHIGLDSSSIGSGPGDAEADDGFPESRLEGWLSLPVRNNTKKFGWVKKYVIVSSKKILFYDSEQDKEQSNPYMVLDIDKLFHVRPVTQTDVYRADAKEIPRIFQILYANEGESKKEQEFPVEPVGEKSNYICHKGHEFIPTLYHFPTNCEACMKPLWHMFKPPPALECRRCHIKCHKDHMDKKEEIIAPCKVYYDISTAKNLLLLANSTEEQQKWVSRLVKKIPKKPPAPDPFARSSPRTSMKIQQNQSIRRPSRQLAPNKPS
The species entered for a further assay is Homo sapiens. Kind of assay: Selectivity ratio of IC50 for ROCK1 (unknown origin) to IC50 for ROCK2 (unknown origin).

Sequence of Rho-associated protein kinase 1 (Q13464 whole entry): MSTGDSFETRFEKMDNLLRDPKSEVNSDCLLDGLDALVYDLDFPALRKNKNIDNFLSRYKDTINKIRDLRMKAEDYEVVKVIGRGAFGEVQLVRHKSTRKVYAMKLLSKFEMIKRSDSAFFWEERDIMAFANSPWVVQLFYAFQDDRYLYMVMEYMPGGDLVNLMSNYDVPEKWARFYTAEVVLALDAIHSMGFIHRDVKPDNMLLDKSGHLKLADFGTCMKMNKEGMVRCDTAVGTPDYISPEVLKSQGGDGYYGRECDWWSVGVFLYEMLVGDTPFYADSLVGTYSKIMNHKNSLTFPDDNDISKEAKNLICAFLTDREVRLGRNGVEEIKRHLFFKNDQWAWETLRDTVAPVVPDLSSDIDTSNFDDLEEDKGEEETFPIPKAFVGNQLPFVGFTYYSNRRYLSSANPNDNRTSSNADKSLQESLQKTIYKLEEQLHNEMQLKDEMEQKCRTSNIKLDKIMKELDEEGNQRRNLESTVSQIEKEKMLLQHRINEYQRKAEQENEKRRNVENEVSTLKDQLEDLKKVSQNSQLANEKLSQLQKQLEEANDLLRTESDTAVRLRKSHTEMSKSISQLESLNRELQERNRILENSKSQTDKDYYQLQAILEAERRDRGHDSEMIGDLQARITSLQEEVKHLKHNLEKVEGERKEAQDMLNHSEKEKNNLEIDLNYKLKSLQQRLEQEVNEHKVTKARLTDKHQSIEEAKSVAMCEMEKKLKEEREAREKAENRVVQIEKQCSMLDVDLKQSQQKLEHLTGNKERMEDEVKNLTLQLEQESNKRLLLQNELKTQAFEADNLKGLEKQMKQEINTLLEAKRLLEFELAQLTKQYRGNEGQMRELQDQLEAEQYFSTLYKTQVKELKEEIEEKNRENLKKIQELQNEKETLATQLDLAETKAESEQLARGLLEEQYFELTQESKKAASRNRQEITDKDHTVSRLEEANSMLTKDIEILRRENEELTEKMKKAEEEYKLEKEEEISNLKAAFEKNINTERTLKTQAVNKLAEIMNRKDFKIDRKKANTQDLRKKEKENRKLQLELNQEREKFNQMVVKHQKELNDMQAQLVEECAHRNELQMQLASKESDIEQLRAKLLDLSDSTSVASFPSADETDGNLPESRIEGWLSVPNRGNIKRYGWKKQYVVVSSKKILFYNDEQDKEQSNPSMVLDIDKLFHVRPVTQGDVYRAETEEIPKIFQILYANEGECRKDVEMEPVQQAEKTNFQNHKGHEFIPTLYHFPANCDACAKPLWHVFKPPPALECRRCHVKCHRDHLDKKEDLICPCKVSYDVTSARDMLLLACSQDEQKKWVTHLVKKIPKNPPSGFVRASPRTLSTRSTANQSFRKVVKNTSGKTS

Turning to `COc1ccc2c(c1)C[C@@H](C(=O)Nc1ccc(-c3ccncc3)cc1OCCN(C)C)CO2`, the IC50 in assay [1] was determined as 0.523 µM; in assay [2], 0.172 µM. Also, in the assay listed under Homo sapiens, the Ratio IC50 was 3.
The matching figures for `COc1ccc2c(c1)CC(C(=O)Nc1ccc(-c3c[nH]nc3C)cc1OCCN(C)C)CO2` (stereo not given): 0.0163 µM, 0.0012 µM and 13.6.
The matching figures for `COc1ccc2c(c1)C[C@H](C(=O)Nc1ccc(-c3ccncc3)cc1OCCN(C)C)CO2`: 0.068 µM, 0.003 µM and 22.7.
In the case of `Cc1ccc2c(c1)CC(C(=O)Nc1ccc(-c3ccncc3)cc1OCCN(C)C)CO2` (stereo not given), the values for the IC50 in assay [1] and in assay [2] were 0.169 µM and 0.024 µM, respectively. Besides, the Ratio IC50 in the assay filed under Homo sapiens was 7.
The matching figures for `CN(C)CCOc1cc(-c2ccncc2)ccc1NC(=O)C1COc2ccccc2C1` (stereo not given): 0.03 µM, 0.007 µM and 4.3.
On to `COc1ccc2c(c1)CC(C(=O)Nc1ccc(-c3ccncc3)cc1OCCN(C)C)CO2` (stereo not given), for which the IC50 in assay [1] came out at 0.17 µM; in assay [2], 0.009 µM. In addition, the Ratio IC50 in the assay listed under Homo sapiens is 18.9.
As to `COc1ccc2c(c1)CC(C(=O)Nc1ccc(-c3cn[nH]c3)cc1OCCN(C)C)CO2` (stereo not given), in assay [1], the IC50 is 0.0034 µM.
As to `CN(C)CCOc1cc(-c2ccncc2)ccc1NC(=O)C1COc2ccc(F)cc2C1` (stereo not given), the IC50 in assay [1] amounted to 0.104 µM; in assay [2], 0.007 µM. Besides, the Ratio IC50 in the assay listed under Homo sapiens worked out at 14.8.
The matching figures for `CN(C)CCOc1cc(-c2ccncc2)ccc1NC(=O)C1COc2ccc(Cl)cc2C1` (stereo not given): 0.135 µM, 0.022 µM and 6.1.
